# Measurements from US20230150997A1, “EIF4E INHIBITORS AND USES THEREOF” (PIC Therapeutics, Inc., priority 2021, published 2023).
# Molecular target: T1, Human eIF4E (Homo sapiens, UniProt P06730)
# T1 construct: Human eIF4E (aa 28-217) with a C-terminal His-tag; made in house
# Experiment: Human eIF4E/4G2 binding assay (TR-FRET)
# Conditions: purified human eIF4E (aa 28-217), biotin labeled 4G2 peptide, 4 hours preincubation at room temperature
# Description: Example 3. Compound Testing in Human eIF4E/4G2 Binding Assay
# Human eIF4E (aa 28-217) with a C-terminal His-tag was expressed in E. coli in inclusion bodies. The protein was solubilized with 8 M urea and purified under denaturing conditions using nickel-charged HisTrap HP columns (GE Healthcare). The purified protein was then refolded by diluting in 20 mM Hepes pH 7.0, 0.5 M NaCl, 1 mM DTT, 1 mM EDTA, 0.5 M arginine plus 6 M urea, and then dialyzing overnight into the same buffer without the urea. The protein was further dialyzed into 20 mM Hepes, pH 6.5, 50 mM NaCl, 1 mM EDTA, 1 mM DTT, and concentrated using Hitrap SP sepharose FF columns (GE Healthcare). The concentrated protein was dialyzed into 20 mM Hepes, pH 7.0, 0.5 M NaCl, 5 mM DTT and 10% glycerol, and stored at -80° C. until use.
# Test compounds (3.43 mM stock in DMSO) were diluted 2-fold in series in DMSO (10 concentration points). Compound solutions (1.2 µl/well) were added into black 384-well polypropylene microplates (Matrix, Thermal Scientific). Twenty-two microliters per well of Assay Buffer (50 mM NaPi, pH 6.5, 50 mM KCl, 1 mM DTT and 0.5 mg/ml gamma globulin) and eight microliters per well of 82.5 nM purified eIF4E in Assay Buffer were added. The samples were incubated at room temperature (20-23° C.) for 4 hours. Biotin labeled 4G2 peptide (Ac-Lys-Gln-Tyr-Asp-Arg-Glu-Phe-Leu-Leu-Asp-Phe-Gln-Phe-Met-Pro-Lys(Aha-Bio)-NH2, 1.75 µM stock in DMSO) was diluted to 0.14 µM in Assay Buffer (without DTT) and 5 µl/well was added. The samples were incubated at room temperature for 20 min. Five microliters per well of 6.4 nM Eu-streptavidin (Eu-SA, Perkin Elmer) and 80 nM Allophycocyanin (APC)-anti His antibody (Columbia Biosciences) in Assay Buffer (without DTT) were then added and the samples were incubated at room temperature for 20 min.
# Assay signals were monitored by reading excitation at 340 nm and emission fluorescence at 615 nm and 665 nm on an Envision reader (Perkin Elmer). Normalized TR-FRET (time-resolved fluorescence resonance energy transfer) assay signal (Rn) was calculated by the formula: Rn = [(A-Ba-C x D)/(D-Bd)] x (Dc- Bd) • Where A is the fluorescence intensity of the sample at 665 nm, • D is the fluorescence intensity of the sample at 615 nm, • Ba and Bd are plate backgrounds at 665 nm and 615 nm, respectively, • Dc is the fluorescence intensity of 0.78 nM Eu-SA in the assay buffer at 615 nm • The cross-talk factor (C) is determined by the following formula: • C = (Ac- Ba)/(Dc-Bd) • Where Ac is the fluorescence intensity of 0.78 nM Eu-SA in the assay buffer at 665 nm.
# IC50 values were calculated using xLFit program (IDBS). Table 2 below lists […] of some compounds, wherein A represents IC50 ≤ 0.5 µM; B represents 0.5 uM < IC50 ≤ 1 µM; and C represents IC50 > 1 µM.
# T1 sequence (P06730 28-217): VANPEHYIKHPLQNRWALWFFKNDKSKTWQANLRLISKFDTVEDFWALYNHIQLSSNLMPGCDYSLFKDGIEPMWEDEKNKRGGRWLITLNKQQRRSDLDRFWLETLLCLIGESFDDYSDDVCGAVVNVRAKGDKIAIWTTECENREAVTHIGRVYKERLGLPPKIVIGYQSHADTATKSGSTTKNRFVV
row,SMILES,IC50
1,COCCOc1ccc(-c2nc(Nc3ncc(-c4cc(C)cs4)cc3C(=O)O)sc2C2CCCC2)cc1 [1-38],500 to 1000 nM
2,"CNCCOc1ccc(-c2nc(Nc3ncc(-c4cccs4)cc3C(=O)O)sc2CC(C)C)cc1Cl [I-3, 2-((4-(3-chloro-4-(2-(methylamino)ethoxy)phenyl)-5-isobutylthiazol-2-yl)amino)-5-(thiophen-2-yl)nicotinic acid]",> 1000 nM
3,COc1ccc(-c2nc(Nc3cc(-c4ccccc4)sc3C(=O)O)sc2CC(C)C)cc1 [I-12],500 to 1000 nM
4,CC(C)Cc1sc(Nc2ncc(-c3cccs3)cc2C(=O)O)nc1-c1ccc(O)cc1 [I-13],> 1000 nM
5,CC(C)Cc1sc(Nc2cc(-c3ccccc3)sc2C(=O)O)nc1-c1ccc(OC2CC2)cc1 [I-14],500 to 1000 nM
6,CC(C)Cc1sc(Nc2ncc(-c3cccs3)cc2C(=O)O)nc1-c1ccc(OC(F)F)cc1 [I-15],500 to 1000 nM
7,COc1ccc(-c2nc(Nc3ncc(-c4cccs4)cc3C(=O)O)sc2C2CC2)cc1 [I-18],500 to 1000 nM
8,O=C(O)c1cc(-c2cccs2)cnc1Nc1nc(-c2ccc(OC3CC3)cc2)c(C2CC2)s1 [I-19],500 to 1000 nM
9,COCCOc1ccc(-c2nc(Nc3cc(-c4ccccc4)sc3C(=O)O)sc2C2CC2)cc1 [I-20],500 to 1000 nM
10,COc1ccc(-c2nc(Nc3cc(-c4ccccc4)sc3C(=O)O)sc2C2CC2)cc1 [I-21],500 to 1000 nM
11,COCCOc1ccc(-c2nc(Nc3ncc(-c4cccs4)cc3C(=O)O)sc2C2CC2)cc1 [I-22],500 to 1000 nM
12,COCCOc1ccc(-c2nc(Nc3cc(-c4ccccc4)sc3C(=O)O)sc2CC(C)C)cc1 [I-23],500 to 1000 nM
13,O=C(O)c1sc(-c2ccccc2)cc1Nc1nc(-c2ccc(O)cc2)c(C2CC2)s1 [I-24],> 1000 nM
14,COc1ccc(-c2nc(Nc3cc(-c4ccccc4)sc3C(=O)O)sc2C2CC2)c(F)c1 [I-25],500 to 1000 nM
15,COCCOc1ccc(-c2nc(Nc3ncc(-c4cccs4)cc3C(=O)O)sc2C2CC2)c(F)c1 [I-26],> 1000 nM
16,COc1ccc(-c2nc(Nc3ncc(-c4cccs4)cc3C(=O)O)sc2C2CC2)c(F)c1 [I-27],500 to 1000 nM
17,COc1ccc(-c2nc(Nc3ncc(-c4cccs4)cc3C(=O)O)sc2C2CC2)cc1F [I-28],500 to 1000 nM
18,COCCOc1ccc(-c2nc(Nc3ncc(-c4cccs4)cc3C(=O)O)sc2C2CC2)cc1F [I-29],500 to 1000 nM
19,COCCOc1ccc(-c2nc(Nc3ncc(-c4cccs4)cc3C(=O)O)sc2C(C)C)cc1F [I-31],500 to 1000 nM
20,COCCOc1ccc(-c2nc(Nc3ncc(-c4cccs4)cc3C(=O)O)sc2C2CCCC2)cc1F [I-32],500 to 1000 nM

row,SMILES,IC50
1,Cc1ccc(-c2cnc(Nc3nc(-c4ccc(OC(F)F)cc4)c(CC(C)C)s3)c(C(=O)O)c2)s1 [I-33],> 1000 nM
2,COCCOc1ccc(-c2nc(Nc3ncc(-c4cccs4)cc3C(=O)O)sc2CCC(C)C)cc1Cl [I-45],≤ 500 nM
3,COCCOc1ccc(-c2nc(Nc3ncc(-c4cccs4)cc3C(=O)O)sc2CCC(C)C)cc1F [I-46],≤ 500 nM
4,COCCCOc1ccc(-c2nc(Nc3ncc(-c4cccs4)cc3C(=O)O)sc2CC(C)C)cc1F [I-47],≤ 500 nM
5,COCCCOc1ccc(-c2nc(Nc3ncc(-c4cccs4)cc3C(=O)O)sc2CC(C)C)cc1Cl [I-48],≤ 500 nM
6,CCCc1sc(Nc2ncc(-c3cccs3)cc2C(=O)O)nc1-c1ccc(OCCOC)c(F)c1 [I-49],500 to 1000 nM
7,COCCOc1ccc(-c2nc(Nc3ncc(-c4cccs4)cc3C(=O)O)sc2CCOC)cc1F [I-50],500 to 1000 nM
8,COCCOc1ccc(-c2nc(Nc3ncc(-c4nccs4)cc3C(=O)O)sc2CC(C)C)cc1F [I-51],≤ 500 nM
9,COCCOc1ccc(-c2nc(Nc3ncc(-c4cccc(F)c4)cc3C(=O)O)sc2CC(C)C)cc1F [I-52],≤ 500 nM
10,"COCCOc1ccc(-c2nc(Nc3ncc(-c4cccs4)cc3C(=O)OC)sc2CC(C)C)cc1F [I-53, methyl 2-((4-(3-fluoro-4-(2-methoxyethoxy)phenyl)-5-isobutylthiazol-2-yl)amino)-5-(thiophen-2-yl)nicotinate]",> 1000 nM
11,COCCOc1ccc(-c2nc(Nc3ncc(-c4cccs4)nc3C(=O)O)sc2CC(C)C)cc1F [I-54],≤ 500 nM
12,COCCOc1ccc(-c2nc(Nc3ncc(-c4ccsc4)cc3C(=O)O)sc2CC(C)C)cc1F [I-55],500 to 1000 nM
13,COCCOc1ccc(-c2nc(Nc3ncc(-c4ccco4)cc3C(=O)O)sc2CC(C)C)cc1F [I-57],500 to 1000 nM
14,COCCOc1ccc(-c2nc(Nc3ncc(-c4cccs4)cc3C(=O)O)sc2CC(C)C)cc1C(F)(F)F [I-58],≤ 500 nM
15,COCCOc1cc(-c2nc(Nc3ncc(-c4cccs4)cc3C(=O)O)sc2CC(C)C)ccc1F [I-59],500 to 1000 nM
16,"COc1ccc(-c2nc(Nc3ncc(-c4cccs4)nc3C(=O)O)sc2CC(C)C)cc1F [I-60, 3-((4-(3-fluoro-4-methoxyphenyl)-5-isobutylthiazol-2-yl)amino)-6-(thiophen-2-yl)pyrazine-2-carboxylic acid]",≤ 500 nM
17,COc1ccc(-c2nc(Nc3ncc(-c4cccs4)nc3C(=O)O)sc2CCC(C)C)cc1Cl [I-61],≤ 500 nM
18,COc1ccc(-c2nc(Nc3ncc(-c4cccs4)nc3C(=O)O)sc2CCC(C)C)cc1F [I-62],≤ 500 nM
19,COCCOc1ccc(-c2nc(Nc3ccc(-c4cccs4)cc3C(=O)O)sc2CC(C)C)cc1F [I-64],≤ 500 nM

# The next lines start with the values.
row,IC50,SMILES
1,≤ 500 nM,COCCOc1ccc(-c2nc(Nc3ncc(-c4cc(C)cs4)cc3C(=O)O)sc2CC(C)C)cc1 [1-35]
2,≤ 500 nM,Cc1csc(-c2cnc(Nc3nc(-c4ccc(OC(F)F)cc4)c(CC(C)C)s3)c(C(=O)O)c2)c1 [1-36]
3,≤ 500 nM,Cc1csc(-c2cnc(Nc3nc(-c4ccc(OC(F)F)cc4)c(C4CCCC4)s3)c(C(=O)O)c2)c1 [1-39]
4,≤ 500 nM,"CC(C)Cc1sc(Nc2ncc(-c3cccs3)cc2C(=O)O)nc1-c1ccc(O)c(Cl)c1 [I-1, 2-((4-(3-chloro-4-hydroxyphenyl)-5-isobutylthiazol-2-yl)amino)-5-(thiophen-2-yl)nicotinic acid]"
5,≤ 500 nM,COc1c(Cl)cc(-c2nc(Nc3ncc(-c4cccs4)cc3C(=O)O)sc2CC(C)C)cc1Cl [I-4]
6,≤ 500 nM,CC(C)Cc1sc(Nc2ncc(-c3cccs3)cc2C(=O)O)nc1-c1ccc(OCC(F)(F)F)cc1 [I-7]
7,≤ 500 nM,CC(C)Cc1sc(Nc2ncc(-c3cccs3)cc2C(=O)O)nc1-c1ccc(OC2CC2)cc1 [I-8]
8,≤ 500 nM,CC(C)Cc1sc(Nc2ncc(-c3cccs3)cc2C(=O)O)nc1-c1ccc(OC(F)(F)F)c(Cl)c1 [I-9]
9,≤ 500 nM,CC(C)Cc1sc(Nc2ncc(-c3cccs3)cc2C(=O)O)nc1-c1ccc(OC(F)(F)F)c(F)c1 [I-10]
10,≤ 500 nM,CCOc1ccc(-c2nc(Nc3ncc(-c4cccs4)cc3C(=O)O)sc2CC(C)C)cc1 [I-11]
11,≤ 500 nM,COCCOc1ccc(-c2nc(Nc3ncc(-c4cccs4)cc3C(=O)O)sc2CC(C)C)cc1 [I-16]
12,≤ 500 nM,"CC(C)Cc1sc(Nc2ncc(-c3cccs3)cc2C(=O)O)nc1-c1ccc(OCC(N)=O)cc1 [I-17, 2-((4-(4-(2-amino-2-oxoethoxy)phenyl)-5-isobutylthiazol-2-yl)amino)-5-(thiophen-2-yl)nicotinic acid]"
13,≤ 500 nM,COCCOc1ccc(-c2nc(Nc3ncc(-c4ccc(C)s4)cc3C(=O)O)sc2CC(C)C)cc1 [I-34]
14,≤ 500 nM,COCCOc1ccc(-c2nc(Nc3ncc(-c4ccc(C)s4)cc3C(=O)O)sc2C2CCCC2)cc1 [I-37]
15,≤ 500 nM,Cc1ccc(-c2cnc(Nc3nc(-c4ccc(OC(F)F)cc4)c(C4CCCC4)s3)c(C(=O)O)c2)s1 [I-40]
16,≤ 500 nM,COCCOc1ccc(-c2nc(Nc3ncc(-c4ccc(C)s4)cc3C(=O)O)sc2CC(C)C)cc1F [I-41]
17,≤ 500 nM,COCCOc1ccc(-c2nc(Nc3ncc(-c4cc(C)cs4)cc3C(=O)O)sc2CC(C)C)cc1F [I-42]
18,≤ 500 nM,COCCOc1ccc(-c2nc(Nc3ncc(-c4ccc(C)s4)cc3C(=O)O)sc2CC(C)C)cc1Cl [I-43]
19,≤ 500 nM,COCCOc1ccc(-c2nc(Nc3ncc(-c4cc(C)cs4)cc3C(=O)O)sc2CC(C)C)cc1Cl [I-44]
